Experimental data reported in article PMC7144022, “Quinolinecarboxamides Inhibit the Replication of the Bovine Viral Diarrhea Virus by Targeting a Hot Spot for the Inhibition of Pestivirus Replication in the RNA-Dependent RNA Polymerase” (Molecules, 2020).
Where “and” joins values, the source holds several entries; their conditions need not be identical. Equal entries are not always repeated.

Assays:
[1] = Cytotoxicity assay, proliferation of exponentially growing MDBK cells (MTS/PMS); assay type: cell-based, bovine; conditions: bovine
Procedure: Assays were carried out, as described previously.

BVDV-1 (strain NADL) = assay: microbe, parasite or virus in culture; assay type: cell-based, bovine viral diarrhea virus (BVDV); conditions: Bovine viral diarrhea virus isolates and strains; RT-qPCR, MDBK cells
[2] = target: T1, BVDV (NADL) RNA-dependent RNA polymerase (RdRp) (Bovine viral diarrhea virus, UniProt P19711); assay: RNA-dependent RNA polymerase assay, poly(C) template; assay type: biochemical; conditions: purified RdRp, up to 500 µM
T1 construct: BVDV (NADL) RNA-dependent RNA polymerase (RdRp) was expressed and purified; made in house
Procedure: BVDV (NADL) RNA-dependent RNA polymerase (RdRp) was expressed and purified, as described before. […] In brief, the purified BVDV polymerase (100 nM) was mixed with 100 µM GTP (containing 8.3 µM of [^3H]GTP, Perkin Elmer) and increasing concentration of the inhibitor (0.2 µM, 0.7 µM, 2 µM, 6 µM, 19 µM, 56 µM, 165 µM or 500 µM) in 50 mM Hepes pH 8.0, 10 mM KCl, 10 mM DTT, 1 mM MgCl2, 2mM MnCl2, and 0.5% igepal (Sigma). The enzyme mix and inhibitors were pre-incubated, in order to favor enzyme-inhibitor interactions before RNA binding. Reactions were started by the addition of 100 nM of poly(C) (about 500 nt in size) template. Reactions were incubated at 30 °C and stopped by addition of 50 mM EDTA. Samples were transferred onto DE-81 filters, washed with 0.3 M ammonium formate solution, and dried. Radioactivity bound to the filter was determined by liquid scintillation counting.

[3] = target: BVDV WT replication complexes (Bovine viral diarrhea virus, UniProt P19711); assay: Replication complex (RC) assay, wild-type BVDV; assay type: biochemical; conditions: for effect on activity of BVDV WT replication complexes: RCs isolated 14 h post-infection
Procedure: (§1) The replication complex (RC) assay is similar to the one described before. In brief, BVDV-infected MDBK cells were suspended in an ice-cold hypotonic buffer A (10 mM Tris, 10 mM NaCl pH 7.8) and were further disrupted by 50 strokes with a Dounce homogenizer. The disrupted cells were pelleted by centrifugation at 1,000× g for 5 min at 4 °C. The supernatant fraction, containing cytoplasmic material and plasma membranes, was concentrated by high-speed centrifugation at 200,000× g for 20 min at 4 °C. The pellet was resuspended in 120 µL of hypotonic buffer B (10 mM Tris, 10 mM NaCl pH 7.8 and 15% glycerol) and used for an RNA polymerase assay. Replicase reactions were carried out, as described before, with some modifications. The [α-^33P]UTP (3,000 mCi/mmol) was replaced by [α-^33P]CTP (3,000 mCi/mmol). The following incubation, RNA extraction, RNA analysis, and quantification were performed, as previously described.

[4] = system: RCs from MDBK cells infected with the TO505-6180res virus; assay: Replication complex (RC) assay, TO505-6180res BVDV; assay type: biochemical, bovine viral diarrhea virus (BVDV); conditions: RCs from TO505-6180res infected MDBK cells
Procedure: as §1

[5] = system: classical swine fever virus (CSFV); assay type: cell-based
hepatitis C virus = assay: In vitro activity against hepatitis C virus; assay type: cell-based
[6] = system: panel of unrelated RNA and DNA viruses; assay: Activity against a panel of unrelated RNA and DNA viruses; assay type: cell-based; conditions: data not shown
BVDV NADL virus = assay: CPE-based antiviral assay, BVDV NADL in MDBK cells (MTS/PMS); conditions: Bovine viral diarrhea virus isolates and strains, MDBK, 72 h

Sequence of BVDV WT replication complexes (P19711 3270-3988, one chain of several): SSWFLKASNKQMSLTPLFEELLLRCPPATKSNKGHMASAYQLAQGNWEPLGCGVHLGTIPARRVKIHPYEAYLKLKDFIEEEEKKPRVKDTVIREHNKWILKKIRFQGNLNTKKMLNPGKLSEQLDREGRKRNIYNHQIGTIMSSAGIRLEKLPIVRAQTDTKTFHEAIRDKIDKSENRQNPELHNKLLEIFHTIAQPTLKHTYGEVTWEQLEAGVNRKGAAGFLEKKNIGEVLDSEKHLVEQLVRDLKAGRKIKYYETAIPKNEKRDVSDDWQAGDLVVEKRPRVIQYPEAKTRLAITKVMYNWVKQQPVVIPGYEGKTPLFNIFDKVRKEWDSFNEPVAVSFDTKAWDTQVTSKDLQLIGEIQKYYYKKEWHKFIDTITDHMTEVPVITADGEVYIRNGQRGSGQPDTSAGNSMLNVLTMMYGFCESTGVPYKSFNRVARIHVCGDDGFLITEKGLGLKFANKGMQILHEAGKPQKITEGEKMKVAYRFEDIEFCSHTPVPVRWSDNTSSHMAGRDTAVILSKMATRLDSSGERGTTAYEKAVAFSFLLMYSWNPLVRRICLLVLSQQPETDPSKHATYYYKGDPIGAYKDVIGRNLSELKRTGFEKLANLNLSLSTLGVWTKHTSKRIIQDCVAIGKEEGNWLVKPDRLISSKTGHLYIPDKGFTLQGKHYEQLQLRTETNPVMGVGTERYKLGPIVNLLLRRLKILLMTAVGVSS
T1 sequence (P19711 3270-3988): as the sequence (P19711 3270-3988, one chain of several) above

Row | SMILES | CC50 at 5 days [1] [nM] | EC50 (BVDV-1 (strain NADL)) | effect on the activity of the viral polymerase [2] | effect on activity of BVDV WT replication complexes [3] | fold less susceptible than BVDV wt RCs [4] [fold] | inhibition of in vitro CSFV replication [5] | in vitro activity against hepatitis C virus (hepatitis C virus) | activity against a panel of unrelated RNA and DNA viruses [6] | EC50 (BVDV NADL virus) [nM] | inhibition at 10 µM ([3]; at 10 µM, read-out: maximum inhibition of BVDV WT replication complex activity) [%]
1 | Cc1ccc2nc(NC(=O)c3cc(-c4ccco4)nc4ccccc34)sc2c1 [TO505-6180, 2-(2-furanyl)-N-(6-methyl-2-benzothiazolyl)-4-Quinolinecarboxamide] | > 100000 | 30 nM and 60 nM | no effect | inhibited the activity of the BVDV wt RCs in a dose-dependent manner | 3 to 4 | inhibited | inactive | inactive | 70 | –
2 | O=C(Nc1ccn(-c2ccccc2)n1)c1cc(-c2ccccc2)nc2ccccc12 [TO502-2403, 2-phenyl-N-(1-phenyl-1H-pyrazol-3-yl)-4-Quinolinecarboxamide] | > 100000 | 60 nM and 50 nM | no effect | inhibited the activity of the BVDV WT replication complexes in a dose-dependent manner | – | inhibited | inactive | inactive | 200 | ~90
